Measured values published in article PMC4608732, “Phosphorylation and Internalization of Lysophosphatidic Acid Receptors LPA1, LPA2, and LPA3” (PLoS ONE, 2015).

Experiments:
LPA1 receptor [1] = target: T1, LPA1 receptor (Mus musculus, UniProt P61793); assay: Intracellular calcium concentration response to LPA, C9 cells overexpressing LPA1; assay type: cell-based
T1 construct: expressed in transfected cells
Procedure: (§1) C9 cells (Clone 9, rat hepatic epithelial cells, CRL-1439™), obtained directly from American Type Culture Collection, were cultured in Ham’s F12 Kaighn’s modification medium supplemented with 10% fetal bovine serum, 100 μg/ml streptomycin, 100 units/ml penicillin and 0.25 μg/ml amphotericin B at 37°C under a 95% air and 5% CO2 atmosphere, as described previously. The medium was replaced with one containing 1% fetal bovine serum, 12–16 h before the experiment. C9 cells stably expressing the mouse LPA1 receptor fused at the carboxyl termini with eGFP were those previously described. […] As depicted in”Fig A in S1 File”, expression of LPA1 and LPA2 receptors was similar (~80%) whereas that of LPA3 was consistently lower (~60%), as evidenced by fluorescence imaging and flow cytometry. Flow cytometry was performed using an Attune NxT Acoustic Focusing Cytometer, employing excitation of 488 nm; data were analyzed using the Attune cytometric software included with the equipment.
(§2) This procedure has been described previously. […] Determinations were carried in an AMINCO-Bowman Series 2 luminescence spectrometer, employing 340 and 380 nm excitation wavelengths and an emission wavelength of 510 nm; chopper interval was 0.5 sec. The intracellular calcium concentration was calculated as described by Grynkiewicz et al.. […]

LPA3 receptor = target: T2, LPA3 receptor (Homo sapiens, UniProt Q9UBY5); assay: Intracellular calcium concentration response to LPA, C9 cells overexpressing LPA3; assay type: cell-based; details: cells over-expressing LPA3
T2 sequence (Q9UBY5 1-353): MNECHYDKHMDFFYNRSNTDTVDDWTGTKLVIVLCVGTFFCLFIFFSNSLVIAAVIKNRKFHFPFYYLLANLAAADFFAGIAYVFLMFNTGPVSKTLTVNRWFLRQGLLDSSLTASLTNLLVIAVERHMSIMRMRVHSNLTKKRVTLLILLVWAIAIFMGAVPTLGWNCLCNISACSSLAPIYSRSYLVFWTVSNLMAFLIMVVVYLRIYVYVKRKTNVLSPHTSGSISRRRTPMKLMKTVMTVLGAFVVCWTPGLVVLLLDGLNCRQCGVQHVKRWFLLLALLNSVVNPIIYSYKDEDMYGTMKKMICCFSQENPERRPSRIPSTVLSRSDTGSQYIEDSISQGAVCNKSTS
Procedure: C9 cells (Clone 9, rat hepatic epithelial cells, CRL-1439™), obtained directly from American Type Culture Collection, were cultured in Ham’s F12 Kaighn’s modification medium supplemented with 10% fetal bovine serum, 100 μg/ml streptomycin, 100 units/ml penicillin and 0.25 μg/ml amphotericin B at 37°C under a 95% air and 5% CO2 atmosphere, as described previously [11]. The medium was replaced with one containing 1% fetal bovine serum, 12–16 h before the experiment. C9 cells stably expressing the mouse LPA1 receptor fused at the carboxyl termini with eGFP were those previously described [11]. […] Flow cytometry was performed using an Attune NxT Acoustic Focusing Cytometer, employing excitation of 488 nm; data were analyzed using the Attune cytometric software included with the equipment.
Briefly, cells were loaded with 2.5 μM Fura-2 AM in Krebs–Ringer–Hepes containing 0.05% bovine serum albumin (pH 7.4) for 1 h at 37°C and then washed to eliminate unincorporated indicator. Determinations were carried in an AMINCO-Bowman Series 2 luminescence spectrometer, employing 340 and 380 nm excitation wavelengths and an emission wavelength of 510 nm; chopper interval was 0.5 sec. The intracellular calcium concentration was calculated as described by Grynkiewicz et al. [27]. […]

LPA2 receptor [2] = target: T3, LPA2 receptor (Homo sapiens, UniProt Q9HBW0); assay: LPA2 receptor internalization, confocal imaging; assay type: cell-based; details: LPA2 cells
T3 sequence (Q9HBW0 whole entry): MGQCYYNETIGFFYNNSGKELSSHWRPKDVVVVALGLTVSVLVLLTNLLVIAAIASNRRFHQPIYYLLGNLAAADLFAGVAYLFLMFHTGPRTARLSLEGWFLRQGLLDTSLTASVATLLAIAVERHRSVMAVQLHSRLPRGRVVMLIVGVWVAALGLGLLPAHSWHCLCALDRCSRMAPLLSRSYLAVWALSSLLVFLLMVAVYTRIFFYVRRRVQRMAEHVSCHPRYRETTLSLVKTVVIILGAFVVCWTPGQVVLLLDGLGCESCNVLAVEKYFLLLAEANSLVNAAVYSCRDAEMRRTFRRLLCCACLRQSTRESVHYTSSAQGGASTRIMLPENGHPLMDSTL
Procedure: Cells were seeded at approximately 30% confluence onto glass-bottomed Petri dishes and cultured for 3 h at 37°C in media containing 1% serum. After treatment, cells were washed three times with phosphate buffered saline and fixed with 4% paraformaldehyde in 0.1 M phosphate buffer for 20 min at room temperature; samples were then washed three additional times with phosphate buffered saline. The fluorescent images were acquired with an Olympus Fluoview FV10 confocal microscope with a water-immersion objective (60X). To determine receptor internalization, the plasma membrane was delineated utilizing the differential interference contrast imaging, and fluorescence in this region was quantified employing the ImageJ software. At least 5 or 6 images of different cultures were taken for each condition. Data were normalized as follows: for each experiment, fluorescence (arbitrary units) at the plasma membrane of baseline samples were pooled and the average was considered as 100%.

LPA2 receptor [3] = target: T3, LPA2 receptor; assay: Intracellular calcium concentration response to LPA, C9 cells overexpressing LPA2; assay type: cell-based
Procedure: as §1, §2

wild-type C9 cells = assay: Intracellular calcium concentration response to LPA, wild type C9 cells; assay type: cell-based, rat
Procedure: as §1, §2

LPA1 receptor [4] = target: T1, LPA1 receptor; assay: Heterologous (PMA) / homologous (LPA) desensitization of LPA-induced calcium response, LPA1 cells; assay type: cell-based; details: preincubation 10 min, washed, challenge 1 μM LPA, LPA1 cells
Procedure: This procedure has been described previously. Briefly, cells were loaded with 2.5 μM Fura-2 AM in Krebs–Ringer–Hepes containing 0.05% bovine serum albumin (pH 7.4) for 1 h at 37°C and then washed to eliminate unincorporated indicator. Determinations were carried in an AMINCO-Bowman Series 2 luminescence spectrometer, employing 340 and 380 nm excitation wavelengths and an emission wavelength of 510 nm; chopper interval was 0.5 sec. The intracellular calcium concentration was calculated as described by Grynkiewicz et al.. In the experiments where prolonged incubation was required (resensitization studies), cells were stimulated, washed, and the incubation was continued in the presence of Fura-2 AM, to avoid dye depletion.
Agonists-mediated decreases occurred in a concentration-dependent fashion, with a maximum at the concentration of ~ 100 nM. […] It is worth noticing that the shift in the curves was more pronounced in LPA1- or LPA3-expressing cells, than in those that expressed the LPA2 subtype.
Plotted are the increases in calcium as the percentage of that obtained in cells preincubated without any agent as mean ± S. E. M. of 6 experiments using different cell preparations.

T1 sequence (P61793 whole entry): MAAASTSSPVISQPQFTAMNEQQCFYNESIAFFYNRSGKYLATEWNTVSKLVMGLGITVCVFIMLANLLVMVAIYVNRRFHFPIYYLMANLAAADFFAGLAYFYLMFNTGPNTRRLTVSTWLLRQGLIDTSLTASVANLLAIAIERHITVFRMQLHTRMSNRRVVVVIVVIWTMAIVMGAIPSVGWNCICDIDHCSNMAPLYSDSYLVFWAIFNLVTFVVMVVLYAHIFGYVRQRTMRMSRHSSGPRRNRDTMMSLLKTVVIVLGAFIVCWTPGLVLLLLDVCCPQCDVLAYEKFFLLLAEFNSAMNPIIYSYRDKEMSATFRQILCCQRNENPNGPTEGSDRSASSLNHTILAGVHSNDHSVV

SMILES: CCCCCCCC/C=C\CCCCCCCC(=O)OC[C@@H](O)COP(=O)(O)O [LPA]
- EC50 (LPA1 receptor [1]; LPA1-overexpressing cells, read-out: EC50, increase in intracellular calcium concentration): 200 to 400 nM
- calcium response (increase of the cation's concentration) (LPA1 receptor [1]; cells over-expressing LPA1): 450 to 600 nM
- calcium response (increase of the cation's concentration) (LPA3 receptor): ~ 300 nM
- recovery of fluorescence at the membrane level after washing (LPA2 receptor [2]; 1 μM LPA 10 min, washed, incubated to 60 or 120 min): slowly
- receptor internalization (decrease in fluorescence at the plasma membrane, compared with other subtypes) (LPA2 receptor [2]; 1 μM agent, 30 or 60 min): much less intense
- LPA concentration response curve, intracellular calcium (LPA2 receptor [3]; LPA2-overexpressing cells, curve shifted to the right): no clear saturation was achieved at the concentrations tested
- calcium response (increase of the cation's concentration) (LPA2 receptor [3]; cells over-expressing LPA2): 450 to 600 nM
- maximal calcium concentration increase (wild-type C9 cells): 150 to 200 nM
- EC50 (wild-type C9 cells; read-out: EC50, increase in intracellular calcium concentration): 200 to 400 nM
- concentration giving maximum homologous desensitization (LPA1 receptor [4]): ~ 100 nM
